{
  "source": "patent US20250049970A1",
  "about": "“DLL3 TARGETING PEPTIDES AND CONSTRUCTS THEREOF” (MARIANA ONCOLOGY INC., priority 2023, published 2025)",
  "note": "pKd: −log10 of the molar value. *1 amine or outer side, *2 acyl side, *3 side chain or, on linkers, in order; H or OH if unused. Where a SMILES comes first, the peptide text is derived from it. Bridges are numbered along the chain shown (N, C = ends). [ ]: non-standard residue; d: D form. The star is where a group is joined. X9 = CSCC[C@H](NC(=O)c1ccc(CNC(=O)CN2CCN(CC(=O)O)CCN(CC(=O)O)CCN(CC(=O)O)CC2)cc1)C(=O)N[C@H](C(=O)N[C@@H](CCCCN*)C(=O)O)C(C)C; X7 = O=C(O)CN1CCN(CC(=O)O)CCN(CC(=O)N[C@H]2CC[C@H](CC(=O)*)CC2)CCN(CC(=O)O)CC1; Ala(piperidin-4-yl) = O=C([C@H](CC1CCN([*:3])CC1)N[*:1])[*:2]; Ala(morpholin-4-yl) = N[C@@H](CN1CCOCC1)C(=O)O; NMeW = CN[C@@H](Cc1c[nH]c2ccccc12)C(=O)O; 2Nal = N[C@@H](Cc1ccc2ccccc2c1)C(=O)O; NMeH = CN[C@@H](Cc1c[nH]cn1)C(=O)O; NMeT = CN[C@H](C(=O)O)[C@@H](C)O; NMeD = CN[C@@H](CC(=O)O)C(=O)O; NMeN = CN[C@@H](CC(N)=O)C(=O)O; Chg = N[C@H](C(=O)O)C1CCCCC1",
  "data": [
    {"target": "T1, DLL3 (Homo sapiens, UniProt Q9NYJ7)", "T1 sequence (Q9NYJ7 27-618)": "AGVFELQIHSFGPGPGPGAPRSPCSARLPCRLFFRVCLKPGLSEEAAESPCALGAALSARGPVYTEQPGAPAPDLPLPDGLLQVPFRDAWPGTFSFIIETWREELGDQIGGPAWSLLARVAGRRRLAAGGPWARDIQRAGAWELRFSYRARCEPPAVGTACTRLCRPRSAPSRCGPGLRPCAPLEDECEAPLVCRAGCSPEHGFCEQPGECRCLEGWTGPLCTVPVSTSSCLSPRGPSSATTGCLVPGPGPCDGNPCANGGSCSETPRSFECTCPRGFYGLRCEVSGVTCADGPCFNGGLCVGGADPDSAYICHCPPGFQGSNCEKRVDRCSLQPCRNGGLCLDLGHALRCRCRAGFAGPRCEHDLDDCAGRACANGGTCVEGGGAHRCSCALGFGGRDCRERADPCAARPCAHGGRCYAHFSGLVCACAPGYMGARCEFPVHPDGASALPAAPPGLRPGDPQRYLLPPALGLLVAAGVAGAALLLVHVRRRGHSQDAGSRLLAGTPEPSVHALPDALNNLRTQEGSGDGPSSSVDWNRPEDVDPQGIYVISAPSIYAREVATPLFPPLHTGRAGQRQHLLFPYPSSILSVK", "assay": "SPR KD, biotinylated human DLL3 on streptavidin chip (Table 8)", "design": "biotin (biotinylated)", "conditions": "biotinylated human DLL3 on streptavidin sensor chip, 25° C., 1:1 binding model; read-out: SPR KD", "source_text": "Biotinylated target ligand human DLL3 was immobilized on a streptavidin sensor chip. A reference surface was set up for nonspecific binding and refractive index changes. […] Sensorgram curves were fitted with 1:1 binding model, and affinity and kinetic parameters were obtained using Biacore Insight evaluation 4.0. software.", "values": [
      {"smiles": "CC(=O)N[C@@H](Cc1c[nH]c2ccccc12)C(=O)N[C@H](C(=O)N[C@H](C(=O)N[C@H]1CSSC[C@@H](C(=O)N[C@@H](Cc2c[nH]c3ccccc23)C(=O)N2CCC[C@H]2C(N)=O)NC(=O)[C@H](CC(=O)O)NC(=O)[C@H](CCCCNC(=O)C[C@H]2CC[C@H](NC(=O)CN3CCN(CC(=O)O)CCN(CC(=O)O)CCN(CC(=O)O)CC3)CC2)NC(=O)[C@H](Cc2ccc3ccccc3c2)NC(=O)[C@H](CC(N)=O)NC(=O)[C@H](CC2CCNCC2)NC1=O)C1CCCCC1)[C@@H](C)O", "note": "[compound 379, Ac-W-T-(Chg)-C(3)-[3-(4-piperidinyl)-Ala]-N-(2Nal)-Lys(Chx-DOTA)-D-C(3)-W-P-CONH2] (Ac-WT[Chg]C[Ala(piperidin-4-yl)]N[2Nal]K(X7)DCWP-NH2; disulfide 4-10)", "pKd": "> 9.00"},
      {"smiles": "CC(=O)N[C@@H](Cc1c[nH]c2ccccc12)C(=O)N[C@H](C(=O)N[C@H](C(=O)N[C@H]1CSSC[C@@H](C(=O)N[C@@H](Cc2c[nH]c3ccccc23)C(=O)N2CCC[C@H]2C(N)=O)NC(=O)[C@H](CC(=O)O)NC(=O)[C@H](CCCCNC(=O)C[C@H]2CC[C@H](NC(=O)CN3CCN(CC(=O)O)CCN(CC(=O)O)CCN(CC(=O)O)CC3)CC2)NC(=O)[C@H](Cc2ccc3ccccc3c2)NC(=O)[C@H](CC(N)=O)NC(=O)[C@H](CN2CCOCC2)NC1=O)C1CCCCC1)[C@@H](C)O", "note": "[compound 380, Ac-W-T-(Chg)-C(3)-[3-(1-morpholinyl)-Ala]-N-(2Nal)-Lys(Chx-DOTA)-D-C(3)-W-P-CONH2] (Ac-WT[Chg]C[Ala(morpholin-4-yl)]N[2Nal]K(X7)DCWP-NH2; disulfide 4-10)", "pKd": "> 9.00"},
      {"smiles": "CSCC[C@H](NC(=O)c1ccc(CNC(=O)CN2CCN(CC(=O)O)CCN(CC(=O)O)CCN(CC(=O)O)CC2)cc1)C(=O)N[C@H](C(=O)N[C@@H](CCCCNC(=O)CC[C@@H]1NC(=O)[C@H](Cc2ccc3ccccc3c2)NC(=O)[C@H](CC(N)=O)NC(=O)[C@H](CC2CCNCC2)NC(=O)[C@@H](NC(=O)[C@@H](NC(=O)[C@@H](NC(=O)[C@H](Cc2c[nH]c3ccccc23)NC(C)=O)[C@@H](C)O)C2CCCCC2)CSSC[C@@H](C(=O)N[C@@H](Cc2c[nH]c3ccccc23)C(=O)N2CCC[C@H]2C(N)=O)NC(=O)[C@H](CC(=O)O)NC1=O)C(=O)O)C(C)C", "note": "[compound 381, Ac-W-T-(Chg)-C(3)-[3-(4-piperidinyl)-Ala]-N-(2Nal)-[Glu(gLys(OH)-Val-Met-AmBz-DOTA)]-D-C(3)-W-P-CONH2] (Ac-WT[Chg]C[Ala(piperidin-4-yl)]N[2Nal]E(X9)DCWP-NH2; disulfide 4-10)", "pKd": "> 9.00"},
      {"smiles": "CC[C@H](C)[C@H](NC(=O)[C@@H](NC(=O)[C@H](Cc1c[nH]c2ccccc12)N(C)C(C)=O)[C@@H](C)O)C(=O)N[C@H]1CSSC[C@@H](C(=O)N[C@@H](Cc2c[nH]c3ccccc23)C(=O)N2CCC[C@H]2C(=O)O)NC(=O)[C@H](CC(=O)O)NC(=O)[C@H](Cc2c[nH]cn2)NC(=O)[C@H](Cc2c[nH]c3ccccc23)NC(=O)[C@H](CC(N)=O)NC(=O)[C@H](CC(N)=O)NC1=O", "note": "[compound 382, Ac-(NmeW)-T-I-C(3)-N-N-W-H-D-C(3)-W-P-CONH2] (Ac-[NMeW]TICNNWHDCWP-OH; disulfide 4-10)", "pKd": "7.00 to 8.00"},
      {"smiles": "CC[C@H](C)[C@H](NC(=O)[C@H]([C@@H](C)O)N(C)C(=O)[C@H](Cc1c[nH]c2ccccc12)NC(C)=O)C(=O)N[C@H]1CSSC[C@@H](C(=O)N[C@@H](Cc2c[nH]c3ccccc23)C(=O)N2CCC[C@H]2C(N)=O)NC(=O)[C@H](CC(=O)O)NC(=O)[C@H](Cc2cnc[nH]2)NC(=O)[C@H](Cc2c[nH]c3ccccc23)NC(=O)[C@H](CC(N)=O)NC(=O)[C@H](CC(N)=O)NC1=O", "note": "[compound 383, Ac-W-(NmeT)-I-C(3)-N-N-W-H-D-C(3)-W-P-CONH2] (Ac-W[NMeT]ICNNWHDCWP-NH2; disulfide 4-10)", "pKd": "6.52 to 7.00"},
      {"smiles": "CC[C@H](C)[C@H](NC(=O)[C@@H](NC(=O)[C@H](Cc1c[nH]c2ccccc12)NC(C)=O)[C@@H](C)O)C(=O)N[C@H]1CSSC[C@@H](C(=O)N[C@@H](Cc2c[nH]c3ccccc23)C(=O)N2CCC[C@H]2C(=O)O)NC(=O)[C@H](CC(=O)O)NC(=O)[C@H](Cc2c[nH]cn2)NC(=O)[C@H](Cc2c[nH]c3ccccc23)NC(=O)[C@H](CC(=O)O)NC(=O)[C@H](CC(N)=O)N(C)C1=O", "note": "[compound 384, Ac-W-T-I-C(3)-(NmeN)-N-W-H-D-C(3)-W-P-CONH2] (Ac-WTIC[NMeN]DWHDCWP-OH; disulfide 4-10)", "pKd": "7.00 to 8.00"},
      {"smiles": "CC[C@H](C)[C@H](NC(=O)[C@@H](NC(=O)[C@H](Cc1c[nH]c2ccccc12)NC(C)=O)[C@@H](C)O)C(=O)N[C@H]1CSSC[C@@H](C(=O)N[C@@H](Cc2c[nH]c3ccccc23)C(=O)N2CCC[C@H]2C(=O)O)NC(=O)[C@H](CC(=O)O)NC(=O)[C@H](Cc2c[nH]cn2)NC(=O)[C@H](Cc2c[nH]c3ccccc23)NC(=O)[C@H](CC(N)=O)N(C)C(=O)[C@H](CC(N)=O)NC1=O", "note": "[compound 385, Ac-W-T-I-C(3)-N-(NmeN)-W-H-D-C(3)-W-P-CONH2] (Ac-WTICN[NMeN]WHDCWP-OH; disulfide 4-10)", "pKd": "7.00 to 8.00"},
      {"smiles": "CC[C@H](C)[C@H](NC(=O)[C@@H](NC(=O)[C@H](Cc1c[nH]c2ccccc12)NC(C)=O)[C@@H](C)O)C(=O)N[C@H]1CSSC[C@@H](C(=O)N[C@@H](Cc2c[nH]c3ccccc23)C(=O)N2CCC[C@H]2C(=O)O)NC(=O)[C@H](CC(=O)O)NC(=O)[C@H](Cc2c[nH]cn2)NC(=O)[C@H](Cc2c[nH]c3ccccc23)N(C)C(=O)[C@H](CC(N)=O)NC(=O)[C@H](CC(N)=O)NC1=O", "note": "[compound 386, Ac-W-T-I-C(3)-N-N-(NmeW)-H-D-C(3)-W-P-CONH2] (Ac-WTICNN[NMeW]HDCWP-OH; disulfide 4-10)", "pKd": "6.52 to 7.00"},
      {"smiles": "CC[C@H](C)[C@H](NC(=O)[C@@H](NC(=O)[C@H](Cc1c[nH]c2ccccc12)NC(C)=O)[C@@H](C)O)C(=O)N[C@H]1CSSC[C@@H](C(=O)N[C@@H](Cc2c[nH]c3ccccc23)C(=O)N2CCC[C@H]2C(N)=O)NC(=O)[C@H](CC(=O)O)NC(=O)[C@H](Cc2cnc[nH]2)N(C)C(=O)[C@H](Cc2c[nH]c3ccccc23)NC(=O)[C@H](CC(N)=O)NC(=O)[C@H](CC(N)=O)NC1=O", "note": "[compound 387, Ac-W-T-I-C(3)-N-N-W-(NmeH)-D-C(3)-W-P-CONH2] (Ac-WTICNNW[NMeH]DCWP-NH2; disulfide 4-10)", "pKd": "7.00 to 8.00"},
      {"smiles": "CC[C@H](C)[C@H](NC(=O)[C@@H](NC(=O)[C@H](Cc1c[nH]c2ccccc12)NC(C)=O)[C@@H](C)O)C(=O)N[C@H]1CSSC[C@@H](C(=O)N[C@@H](Cc2c[nH]c3ccccc23)C(=O)N2CCC[C@H]2C(N)=O)NC(=O)[C@H](CC(=O)O)N(C)C(=O)[C@H](Cc2cnc[nH]2)NC(=O)[C@H](Cc2c[nH]c3ccccc23)NC(=O)[C@H](CC(N)=O)NC(=O)[C@H](CC(N)=O)NC1=O", "note": "[compound 388, Ac-W-T-I-C(3)-N-N-W-H-(NmeD)-C(3)-W-P-CONH2] (Ac-WTICNNWH[NMeD]CWP-NH2; disulfide 4-10)", "pKd": "6.52 to 7.00"},
      {"smiles": "CC[C@H](C)[C@H](NC(=O)[C@@H](NC(=O)[C@H](Cc1c[nH]c2ccccc12)NC(C)=O)[C@@H](C)O)C(=O)N[C@H]1CSSC[C@@H](C(=O)N(C)[C@@H](Cc2c[nH]c3ccccc23)C(=O)N2CCC[C@H]2C(=O)O)NC(=O)[C@H](CC(=O)O)NC(=O)[C@H](Cc2c[nH]cn2)NC(=O)[C@H](Cc2c[nH]c3ccccc23)NC(=O)[C@H](CC(N)=O)NC(=O)[C@H](CC(N)=O)NC1=O", "note": "[compound 389, Ac-W-T-I-C(3)-N-N-W-H-D-C(3)-(NmeW)-P-CONH2] (Ac-WTICNNWHDC[NMeW]P-OH; disulfide 4-10)", "pKd": "6.52 to 7.00"}
    ]}
  ]
}
